Results from PubChem BioAssay AID504401 (The Scripps Research Institute Molecular Screening Center, 2011).
The source made the active and inactive calls. The rule behind the calls is not given here.

Columns and labels:
Test in all cases: CYP450 and receptor off-target profile – biochemical, Ricerca HitProfilingScreen, selectivity assay for GPR7 antagonist project, late-stage follow-up (AID 504401)
Cannabinoid CB1 = settings: Ricerca radioligand binding and CYP450 panel, at 10 µM, hits give high values
Adrenergic beta1 = settings: Ricerca radioligand binding and CYP450 panel, at 10 µM, hits give high values
Opiate mu (OP3, MOP) = settings: Ricerca radioligand binding and CYP450 panel, at 10 µM, hits give high values
[1] = biological target: Muscarinic acetylcholine receptor M2 (Homo sapiens) (UniProt P08172); settings: Ricerca radioligand binding and CYP450 panel, at 10 µM, hits give high values
Dopamine D2S = settings: Ricerca radioligand binding and CYP450 panel, at 10 µM, hits give high values
GABAA = settings: Ricerca radioligand binding and CYP450 panel, central, at 10 µM, hits give high values
Sigma 1 = settings: Ricerca radioligand binding and CYP450 panel, at 10 µM, hits give high values
Adenosine A1 = settings: Ricerca radioligand binding and CYP450 panel, at 10 µM, hits give high values
Sodium Channel = settings: Ricerca radioligand binding and CYP450 panel, site 2, at 10 µM, hits give high values
Adrenergic alpha1A = settings: Ricerca radioligand binding and CYP450 panel, at 10 µM, hits give high values
[2] = biological target: Cytochrome P450 3A4 (Homo sapiens) (UniProt P08684); settings: Ricerca radioligand binding and CYP450 panel; CYP450 3A4; at 10 µM; hits give high values
[3] = biological target: Alpha-2A adrenergic receptor (Homo sapiens) (UniProt P08913); settings: Ricerca radioligand binding and CYP450 panel; Adrenergic alpha2A; at 10 µM; hits give high values
[4] = biological target: Muscarinic acetylcholine receptor M3 (Homo sapiens) (UniProt P20309); settings: Ricerca radioligand binding and CYP450 panel, at 10 µM, hits give high values
[5] = biological target: D(1A) dopamine receptor (Homo sapiens) (UniProt P21728); settings: Ricerca radioligand binding and CYP450 panel; Dopamine D1; at 10 µM; hits give high values
[6] = biological target: Voltage-gated inwardly rectifying potassium channel KCNH2 (Homo sapiens) (UniProt Q12809); settings: Ricerca radioligand binding and CYP450 panel; Potassium Channel hERG; at 10 µM; hits give high values
Nicotinic Acetylcholine = settings: Ricerca radioligand binding and CYP450 panel, at 10 µM, hits give high values
[7] = tested on: Norepinephrine Transporter (NET); settings: Ricerca radioligand binding and CYP450 panel, at 10 µM, hits give high values
Adrenergic alpha1B = settings: Ricerca radioligand binding and CYP450 panel, at 10 µM, hits give high values
Histamine H1 = settings: Ricerca radioligand binding and CYP450 panel, at 10 µM, hits give high values
[8] = biological target: 5-hydroxytryptamine receptor 2B (Homo sapiens) (UniProt P41595); settings: Ricerca radioligand binding and CYP450 panel; Serotonin (5-Hydroxytryptamine) 5-HT2B; at 10 µM; hits give high values
[9] = biological target: Cytochrome P450 2C9 (Homo sapiens) (UniProt P11712); settings: Ricerca radioligand binding and CYP450 panel; CYP450 2C9; at 10 µM; hits give high values
Glutamate NMDA = settings: Ricerca radioligand binding and CYP450 panel, Phencyclidine site, at 10 µM, hits give high values
Prostanoid EP4 = settings: Ricerca radioligand binding and CYP450 panel, at 10 µM, hits give high values
[10] = biological target: Cytochrome P450 1A2 (Homo sapiens) (UniProt P05177); settings: Ricerca radioligand binding and CYP450 panel; CYP450 1A2; at 10 µM; hits give high values
[11] = tested on: Alpha-2A adrenergic receptor (Homo sapiens) + Histamine H1 receptor (Homo sapiens) + Mu-type opioid receptor (Homo sapiens); settings: Ricerca radioligand binding and CYP450 panel; at 10 µM; hits give high values
[12] = biological target: Beta-2 adrenergic receptor (Homo sapiens) (UniProt P07550); settings: Ricerca radioligand binding and CYP450 panel; Adrenergic beta2; at 10 µM; hits give high values
[13] = biological target: Cytochrome P450 2D6 (Homo sapiens) (UniProt P10635); settings: Ricerca radioligand binding and CYP450 panel; CYP450 2D6; at 10 µM; hits give high values
Calcium Channel L-Type = settings: Ricerca radioligand binding and CYP450 panel, Dihydropyridine site, at 10 µM, hits give high values
Adenosine A2A = settings: Ricerca radioligand binding and CYP450 panel, at 10 µM, hits give high values
CYP450 2C19 = settings: Ricerca radioligand binding and CYP450 panel, at 10 µM, hits give high values

Sequence of Cytochrome P450 2D6 (Homo sapiens) (P10635 whole entry, looked up): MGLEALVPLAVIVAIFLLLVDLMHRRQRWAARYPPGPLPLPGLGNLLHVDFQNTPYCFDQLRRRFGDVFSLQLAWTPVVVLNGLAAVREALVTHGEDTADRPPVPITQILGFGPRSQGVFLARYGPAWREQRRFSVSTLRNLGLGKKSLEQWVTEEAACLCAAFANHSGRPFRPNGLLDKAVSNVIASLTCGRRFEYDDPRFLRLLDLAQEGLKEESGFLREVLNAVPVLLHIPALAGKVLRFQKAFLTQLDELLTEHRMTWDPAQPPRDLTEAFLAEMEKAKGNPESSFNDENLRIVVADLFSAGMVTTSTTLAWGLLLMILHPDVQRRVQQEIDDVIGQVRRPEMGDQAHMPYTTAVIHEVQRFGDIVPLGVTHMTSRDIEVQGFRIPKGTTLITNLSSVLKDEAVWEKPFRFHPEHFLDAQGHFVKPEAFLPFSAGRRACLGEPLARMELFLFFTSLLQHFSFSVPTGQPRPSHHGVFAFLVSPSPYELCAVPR
Sequence of 5-hydroxytryptamine receptor 2B (Homo sapiens) (P41595 whole entry, looked up): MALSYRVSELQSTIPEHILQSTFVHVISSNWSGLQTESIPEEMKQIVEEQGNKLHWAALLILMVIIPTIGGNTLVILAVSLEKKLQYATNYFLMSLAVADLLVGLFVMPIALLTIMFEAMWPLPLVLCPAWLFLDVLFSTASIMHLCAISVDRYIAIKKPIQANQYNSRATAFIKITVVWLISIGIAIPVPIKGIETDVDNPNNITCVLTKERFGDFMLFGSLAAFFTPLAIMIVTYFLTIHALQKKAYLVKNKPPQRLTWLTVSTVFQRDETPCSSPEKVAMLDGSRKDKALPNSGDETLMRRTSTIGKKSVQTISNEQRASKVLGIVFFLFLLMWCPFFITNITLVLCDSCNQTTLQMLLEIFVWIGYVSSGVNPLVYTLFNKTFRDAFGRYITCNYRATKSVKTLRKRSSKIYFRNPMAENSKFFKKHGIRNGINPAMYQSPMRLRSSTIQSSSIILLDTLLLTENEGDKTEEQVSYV
Sequence of Muscarinic acetylcholine receptor M2 (Homo sapiens) (P08172 whole entry, looked up): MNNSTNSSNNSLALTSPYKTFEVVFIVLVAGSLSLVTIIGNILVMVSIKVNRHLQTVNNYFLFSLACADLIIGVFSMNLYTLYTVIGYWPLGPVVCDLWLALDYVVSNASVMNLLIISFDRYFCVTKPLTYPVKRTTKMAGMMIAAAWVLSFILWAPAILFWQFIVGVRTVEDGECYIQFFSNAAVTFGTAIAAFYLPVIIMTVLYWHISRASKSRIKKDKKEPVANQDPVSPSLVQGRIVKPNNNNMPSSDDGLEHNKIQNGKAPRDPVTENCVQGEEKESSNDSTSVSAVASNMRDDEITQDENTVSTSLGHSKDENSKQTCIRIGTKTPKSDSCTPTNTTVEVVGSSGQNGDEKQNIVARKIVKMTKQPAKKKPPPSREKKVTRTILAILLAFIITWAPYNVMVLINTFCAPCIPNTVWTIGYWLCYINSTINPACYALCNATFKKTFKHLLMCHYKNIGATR
Sequence of Cytochrome P450 2C9 (Homo sapiens) (P11712 whole entry, looked up): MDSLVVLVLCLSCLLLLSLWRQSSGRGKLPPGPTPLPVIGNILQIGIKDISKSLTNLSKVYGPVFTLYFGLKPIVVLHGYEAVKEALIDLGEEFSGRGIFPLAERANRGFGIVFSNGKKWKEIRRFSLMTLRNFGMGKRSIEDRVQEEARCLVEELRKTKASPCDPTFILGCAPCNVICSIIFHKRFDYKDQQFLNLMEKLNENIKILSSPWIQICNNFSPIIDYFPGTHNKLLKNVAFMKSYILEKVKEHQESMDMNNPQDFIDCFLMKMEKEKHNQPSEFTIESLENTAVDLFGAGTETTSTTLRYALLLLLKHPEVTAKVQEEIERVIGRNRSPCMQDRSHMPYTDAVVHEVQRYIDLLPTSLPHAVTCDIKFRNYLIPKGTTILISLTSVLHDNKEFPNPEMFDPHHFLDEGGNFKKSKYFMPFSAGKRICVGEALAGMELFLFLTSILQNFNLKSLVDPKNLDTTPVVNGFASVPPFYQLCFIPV
Sequence of D(1A) dopamine receptor (Homo sapiens) (P21728 whole entry, looked up): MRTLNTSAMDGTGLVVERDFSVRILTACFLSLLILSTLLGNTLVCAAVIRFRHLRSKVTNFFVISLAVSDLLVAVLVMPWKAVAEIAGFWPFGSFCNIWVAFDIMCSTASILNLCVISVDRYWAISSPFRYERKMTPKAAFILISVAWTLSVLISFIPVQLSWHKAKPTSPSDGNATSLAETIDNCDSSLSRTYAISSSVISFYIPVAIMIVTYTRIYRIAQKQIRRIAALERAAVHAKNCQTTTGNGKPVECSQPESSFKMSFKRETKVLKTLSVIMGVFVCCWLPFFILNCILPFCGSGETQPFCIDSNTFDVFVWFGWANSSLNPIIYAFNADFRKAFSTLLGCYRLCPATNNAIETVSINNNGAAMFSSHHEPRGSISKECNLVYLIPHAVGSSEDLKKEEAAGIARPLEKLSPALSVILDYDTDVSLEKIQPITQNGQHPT
Sequence of Cytochrome P450 3A4 (Homo sapiens) (P08684 whole entry, looked up): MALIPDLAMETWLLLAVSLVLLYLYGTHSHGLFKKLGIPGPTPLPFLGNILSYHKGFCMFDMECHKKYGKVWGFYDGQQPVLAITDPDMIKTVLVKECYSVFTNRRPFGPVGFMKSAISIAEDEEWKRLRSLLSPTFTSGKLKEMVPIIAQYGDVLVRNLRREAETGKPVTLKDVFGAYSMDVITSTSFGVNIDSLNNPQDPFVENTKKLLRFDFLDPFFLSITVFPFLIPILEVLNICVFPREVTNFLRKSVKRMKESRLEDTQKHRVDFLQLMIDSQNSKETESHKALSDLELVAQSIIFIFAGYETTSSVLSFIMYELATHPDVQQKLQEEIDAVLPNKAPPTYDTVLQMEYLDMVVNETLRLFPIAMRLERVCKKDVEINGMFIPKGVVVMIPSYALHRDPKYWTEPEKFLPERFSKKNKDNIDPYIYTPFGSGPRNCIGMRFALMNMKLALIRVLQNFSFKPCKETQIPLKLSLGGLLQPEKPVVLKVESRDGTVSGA
Sequence of Voltage-gated inwardly rectifying potassium channel KCNH2 (Homo sapiens) (Q12809 whole entry, looked up): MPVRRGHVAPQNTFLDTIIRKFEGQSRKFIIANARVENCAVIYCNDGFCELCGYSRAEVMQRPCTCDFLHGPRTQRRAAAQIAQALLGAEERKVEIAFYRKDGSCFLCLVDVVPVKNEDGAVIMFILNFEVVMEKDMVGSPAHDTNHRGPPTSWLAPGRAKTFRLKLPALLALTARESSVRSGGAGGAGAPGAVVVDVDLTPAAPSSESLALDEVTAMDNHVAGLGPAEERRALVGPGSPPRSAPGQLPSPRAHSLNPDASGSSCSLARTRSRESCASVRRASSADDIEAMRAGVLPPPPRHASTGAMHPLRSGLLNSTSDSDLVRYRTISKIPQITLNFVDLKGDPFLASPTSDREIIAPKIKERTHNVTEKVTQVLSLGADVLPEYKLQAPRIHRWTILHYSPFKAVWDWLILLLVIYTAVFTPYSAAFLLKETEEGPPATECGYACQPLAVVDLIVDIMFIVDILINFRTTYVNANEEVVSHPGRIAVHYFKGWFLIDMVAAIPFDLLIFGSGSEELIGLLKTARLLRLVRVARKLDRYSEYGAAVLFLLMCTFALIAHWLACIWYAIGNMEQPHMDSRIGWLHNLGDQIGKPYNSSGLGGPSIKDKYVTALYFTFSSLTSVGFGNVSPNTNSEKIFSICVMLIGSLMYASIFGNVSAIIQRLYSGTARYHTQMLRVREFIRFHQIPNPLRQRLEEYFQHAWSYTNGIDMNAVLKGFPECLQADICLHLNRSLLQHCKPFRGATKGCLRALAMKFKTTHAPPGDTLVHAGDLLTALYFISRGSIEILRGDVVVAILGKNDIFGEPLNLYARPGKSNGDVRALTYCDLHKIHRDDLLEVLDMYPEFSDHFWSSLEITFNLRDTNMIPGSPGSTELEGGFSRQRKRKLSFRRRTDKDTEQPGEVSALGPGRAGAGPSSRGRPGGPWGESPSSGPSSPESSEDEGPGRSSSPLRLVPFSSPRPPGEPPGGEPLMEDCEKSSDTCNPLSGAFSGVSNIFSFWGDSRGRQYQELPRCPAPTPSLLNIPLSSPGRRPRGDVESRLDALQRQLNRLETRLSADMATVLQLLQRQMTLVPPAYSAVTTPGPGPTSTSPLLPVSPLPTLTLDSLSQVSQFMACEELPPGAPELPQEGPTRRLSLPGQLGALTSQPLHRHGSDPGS
Sequence of Cytochrome P450 1A2 (Homo sapiens) (P05177 whole entry, looked up): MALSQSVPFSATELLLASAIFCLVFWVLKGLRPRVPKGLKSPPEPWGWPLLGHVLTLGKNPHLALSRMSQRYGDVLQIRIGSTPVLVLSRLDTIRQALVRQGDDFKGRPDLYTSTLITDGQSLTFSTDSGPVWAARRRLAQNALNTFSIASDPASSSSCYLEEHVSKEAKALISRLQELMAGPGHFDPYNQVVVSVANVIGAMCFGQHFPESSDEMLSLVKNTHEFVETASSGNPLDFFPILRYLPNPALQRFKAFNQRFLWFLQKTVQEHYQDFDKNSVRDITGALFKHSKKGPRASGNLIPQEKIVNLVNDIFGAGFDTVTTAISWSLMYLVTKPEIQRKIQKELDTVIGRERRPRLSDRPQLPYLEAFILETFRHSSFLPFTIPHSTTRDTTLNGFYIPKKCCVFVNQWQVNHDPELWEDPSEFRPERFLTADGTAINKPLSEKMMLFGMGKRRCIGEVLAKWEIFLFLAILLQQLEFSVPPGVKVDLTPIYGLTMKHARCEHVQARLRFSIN
Sequence of Beta-2 adrenergic receptor (Homo sapiens) (P07550 whole entry, looked up): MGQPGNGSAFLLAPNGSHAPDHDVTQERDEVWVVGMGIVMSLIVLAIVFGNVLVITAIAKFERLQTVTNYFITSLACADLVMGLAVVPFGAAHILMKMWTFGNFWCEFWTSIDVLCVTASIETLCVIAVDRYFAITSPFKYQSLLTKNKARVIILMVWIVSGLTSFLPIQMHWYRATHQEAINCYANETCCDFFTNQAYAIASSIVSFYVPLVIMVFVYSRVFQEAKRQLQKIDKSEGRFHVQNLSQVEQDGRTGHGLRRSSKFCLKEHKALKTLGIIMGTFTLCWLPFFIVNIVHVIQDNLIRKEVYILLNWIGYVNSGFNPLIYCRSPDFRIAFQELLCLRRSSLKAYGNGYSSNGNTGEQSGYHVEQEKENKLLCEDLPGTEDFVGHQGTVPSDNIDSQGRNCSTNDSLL

In the case of `COc1ccc(Oc2c(Cl)cnn(-c3cc(C)cc(C)c3)c2=O)cc1`, the inhibition (Cannabinoid CB1) is reported as 25% (inactive), the inhibition (Adrenergic beta1) is reported as 13% (inactive) and the inhibition (Opiate mu (OP3, MOP)) is reported as -7% (inactive). The inhibition [1] was 2% (inactive), the inhibition (Dopamine D2S) was 13% (inactive) and the inhibition (GABAA; Flunitrazepam site) was -1% (inactive). The inhibition (GABAA; Muscimol site) was 4% (inactive), the inhibition (Sigma 1) was -4% (inactive) and the inhibition (Adenosine A1) was 19% (inactive). For the same compound, the inhibition (Sodium Channel) was 23% (inactive), the inhibition (Adrenergic alpha1A) was 2% (inactive) and the inhibition [2] was 53%. The inhibition [3] was 8% (inactive), the inhibition [4] was 0% (inactive) and the inhibition [5] was 5% (inactive). For the same compound, the inhibition [6] was 13% (inactive), the inhibition (Nicotinic Acetylcholine) was -22% (inactive) and the inhibition [7] was 47% (inactive). For the same compound, the inhibition (Adrenergic alpha1B) was 3% (inactive), the inhibition (Histamine H1) was 16% (inactive) and the inhibition [8] was 8% (inactive). For the same compound, the inhibition [9] was 5% (inactive), the inhibition (Glutamate NMDA) was -3% (inactive) and the inhibition (Prostanoid EP4) was 2% (inactive). For the same compound, the inhibition [10] was 11% (inactive), the inhibition [11] was -3% (inactive) and the inhibition [12] was -2% (inactive). The inhibition [13] was 16% (inactive), the inhibition (Calcium Channel L-Type) was 26% (inactive) and the inhibition (Adenosine A2A) was 14% (inactive). For the same compound, the inhibition (CYP450 2C19) was -3% (inactive).
